Measured values from PMC4929687 (Scientific Reports, 2014).

Biological target: T1, human kidney-type glutaminase (KGA), catalytic domain (cKGA) (Homo sapiens, UniProt O94925)
T1 sequence (O94925 221-533): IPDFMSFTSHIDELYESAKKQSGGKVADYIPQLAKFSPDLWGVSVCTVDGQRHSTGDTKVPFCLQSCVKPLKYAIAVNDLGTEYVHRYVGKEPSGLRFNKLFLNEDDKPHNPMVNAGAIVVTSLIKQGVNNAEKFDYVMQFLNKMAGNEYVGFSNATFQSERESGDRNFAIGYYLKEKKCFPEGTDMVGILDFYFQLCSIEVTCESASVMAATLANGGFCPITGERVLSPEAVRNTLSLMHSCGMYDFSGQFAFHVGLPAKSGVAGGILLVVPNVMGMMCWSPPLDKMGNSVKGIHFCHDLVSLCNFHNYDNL
Assay: X-ray crystal structure at […] Å
Type: biochemical

[N-]=[N+]=CC(=O)CC[C@H](N)C(=O)O [DON, 6-diazo-5-oxo-L-norleucine]
IC50: ~1000 µM
